# Laboratory results reported in patent publication US11207301B2, “Sphingosine 1 phosphate receptor agonists for neuroprotection” (RECEPTOS LLC, priority 2017, dated 2021).
# Assays:
# [1] = test system: cuprizone-induced mouse model of demyelination; test: Cuprizone-induced mouse model of demyelination / neuroprotection; format: in vivo, C57BL/6 mice; details: 1 mg/kg; vehicle 258±49.1, p<0.001
# From the text: The effect of a S1P receptor agonist on spinal cord axial demyelination or reduction in axonal breaks can be assessed by measuring concentration of neurofilament light chain (NfL) in the plasma. NfL is released to the plasma following axonal injury and degeneration. Histological examination of axons with antineurofilament H non-phosphorylated mouse antibody SMI-32 can also be used to assess axonal demyelination or breaks. NfH is phosphorylated in healthy axons and unphosphorylated in damaged axons. In addition, the effects of ozanimod on the CNS were examined in vivo using the cuprizone-induced mouse model of demyelination and in vitro in primary rodent astrocytes. Efficacy of ozanimod or compound (2-R) was examined in the cuprizone-induced mouse model of neuroprotection. C57BL/6 mice were treated with cuprizone (0.3% weight/weight orally) and rapamycin (10 mg/kg intraperitoneally daily) to demyelinate axons in the brain and concurrently treated with ozanimod (0.1, 0.3, or 1 mg/kg) or compound (2-S) (1 mg/kg) by daily oral gavage to investigate its neuroprotective activity. Neuroprotection was assessed through examination of axonal pathology in the corpus callosum using SMI-32 (antineurofilament H non-phosphorylated mouse monoclonal antibody) staining, functional assessment through kinematic gait analysis and the plasma biomarker neurofilament light chain (NfL). Further, direct activity of ozanimod was examined in resting and activated primary rodent astrocytes in vitro.
# [2] = molecular target: T1, Recombinant human MAO-A (Homo sapiens, UniProt P21397); test: MAO-A inhibition, conversion of kynuramine to 4-hydroxyquinoline; format: biochemical
# T1 construct: purchased Sigma-Aldrich M7316; host or cells: baculovirus infected insect cells
# T1 sequence (P21397 1-527): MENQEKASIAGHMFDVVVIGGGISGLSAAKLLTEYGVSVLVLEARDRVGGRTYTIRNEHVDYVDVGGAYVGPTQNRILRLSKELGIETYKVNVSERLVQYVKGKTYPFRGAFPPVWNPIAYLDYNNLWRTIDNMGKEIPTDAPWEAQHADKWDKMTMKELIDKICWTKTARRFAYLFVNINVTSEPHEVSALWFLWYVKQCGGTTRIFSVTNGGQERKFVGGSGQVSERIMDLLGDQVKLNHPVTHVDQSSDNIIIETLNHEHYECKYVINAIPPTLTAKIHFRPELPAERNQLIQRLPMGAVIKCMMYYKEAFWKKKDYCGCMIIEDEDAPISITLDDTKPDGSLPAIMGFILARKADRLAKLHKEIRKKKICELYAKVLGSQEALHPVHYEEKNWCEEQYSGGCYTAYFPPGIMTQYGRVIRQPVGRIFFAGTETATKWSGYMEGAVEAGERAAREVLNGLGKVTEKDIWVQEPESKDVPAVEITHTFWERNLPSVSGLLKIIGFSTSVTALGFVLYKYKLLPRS
# Protocol: (§1) The effect of a S1P receptoragonist on MAO-B activity can be assessed by measuring the inhibition of conversion of substrate kynuramine to 4-hydroxyquinoline as described in Example 4.
# (§2) Compound 1 and Compound 2-S were evaluated for their ability to inhibit MAO-A and MAO-B. Inhibition of the conversion of kynuramine, a substrate for MAO-A and MAO-B, to 4-hydroxyquinoline was used to assess the inhibitory potential of Compound 1 and Compound 2-S. Recombinant human MAO-A (product number M7316) and MAO-B (product number M7441) expressed in baculovirus infected insect cells were obtained from Sigma-Aldrich, Saint Louis, Mo. USA were used as a source of purified MAOs.
# Recombinant MAO-A (0.01 mg/mL, final concentrations) and MAO-B (0.02 mg/mL, final concentration) were diluted to desired concentrations in 100 mM potassium phosphate buffer (pH 7.4) containing 5 mM MgCl2. The diluted protein fractions were preincubated with various concentrations of each test compound at 37° C. for 2 min. The concentrations used were 100, 33, 10, 3.3, 1.0, 0.33 μM and acetonitrile/DMSO as vehicle control for MAO-A and 1.0, 0.3, 0.1, 0.03, 0.01, 0.003 μM and acetonitrile/DMSO as vehicle control for MAO-B. The reaction was started by addition of kynuramine to the incubation mixture. The final concentration of kynuramine was 40 μM for MAO-A and 25 μM for MAO-B. The total incubation volume was 0.250 mL. […] The reaction product, 4-hydroxyquinoline was analyzed by LC-MS/MS as described below. […]
# (§3) The gradient system was used to separate the analytes with a flow rate of 0.5 ml/min using mobile phase A, water containing 0.1% formic acid and mobile phase B, acetonitrile containing 0.1% formic acid. […] The analytes were monitored using multiple reaction monitoring and the ion transitions (Q1/Q3) were as follows: 4-hydroxyquinoline 146/104 (collision energy, CE was 27; declustering potential, DP, 50, and IS (acetaminophen), 152/110 (collision energy, CE was 27; declustering potential, DP, 50). All data were analyzed using AB Sciex Analyst v1.6.2 software.
# [3] = molecular target: T2, Recombinant human MAO-B (Homo sapiens, UniProt P27338); test: MAO-B inhibition, conversion of kynuramine to 4-hydroxyquinoline; format: biochemical
# T2 construct: purchased Sigma-Aldrich M7441; host or cells: baculovirus infected insect cells
# T2 sequence (P27338 1-520): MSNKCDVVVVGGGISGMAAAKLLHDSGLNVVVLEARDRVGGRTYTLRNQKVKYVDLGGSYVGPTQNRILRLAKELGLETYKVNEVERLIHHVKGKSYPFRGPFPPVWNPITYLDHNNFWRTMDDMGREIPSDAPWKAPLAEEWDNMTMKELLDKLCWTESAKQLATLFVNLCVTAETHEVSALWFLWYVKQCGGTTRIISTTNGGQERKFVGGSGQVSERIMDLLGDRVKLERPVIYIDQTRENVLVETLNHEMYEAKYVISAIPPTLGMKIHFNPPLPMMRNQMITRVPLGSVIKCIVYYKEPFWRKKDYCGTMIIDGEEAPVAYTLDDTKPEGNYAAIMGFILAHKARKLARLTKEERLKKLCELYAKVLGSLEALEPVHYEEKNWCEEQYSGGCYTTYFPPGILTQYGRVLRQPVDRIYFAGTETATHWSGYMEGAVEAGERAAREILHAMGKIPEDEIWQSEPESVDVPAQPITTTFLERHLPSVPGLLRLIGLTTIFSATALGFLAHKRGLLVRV
# Protocol: as §1, §2
# Recombinant MAO-A (0.01 mg/mL, final concentrations) and MAO-B (0.02 mg/mL, final concentration) were diluted to desired concentrations in 100 mM potassium phosphate buffer (pH 7.4) containing 5 mM MgCl2. The diluted protein fractions were preincubated with various concentrations of each test compound at 37° C. for 2 min. The concentrations used were 100, 33, 10, 3.3, 1.0, 0.33 μM and acetonitrile/DMSO as vehicle control for MAO-A and 1.0, 0.3, 0.1, 0.03, 0.01, 0.003 μM and acetonitrile/DMSO as vehicle control for MAO-B. The reaction was started by addition of kynuramine to the incubation mixture. The final concentration of kynuramine was 40 μM for MAO-A and 25 μM for MAO-B. The total incubation volume was 0.250 mL. This concentration was selected to be close to the Km values of MAO-A (Km 42 μM) and MAO-B (Km 26 μM). After 10 min of incubation, aliquots (100 μL) of the reaction mixture were taken and added to 200 μL acetonitrile containing 0.5 μM IS (acetaminophen). The reaction product, 4-hydroxyquinoline was analyzed by LC-MS/MS as described below.
# MS characterization and detection of kynuramine and 4-hydroxyquinoline was performed using ABI 4000 Sciex QTrap mass spectrometer utilizing a Turbo Spray. The mass spectrometer was controlled by Analyst v1.6.2. The ESI was operated in a positive ion mode and the experimental parameters were set as follows: ion spray voltage, 2000; source temperature, 550° C.; curtain gas, 20; collision gas, medium ion source gas 1, 55; ion source gas 2, 50. […]
# as §3
compound,measurement,setting,value
CC(C)Oc1ccc(-c2nc(-c3cccc4c3CC[C@@H]4N)no2)cc1C#N [Compound 2-S],plasma biomarker NfL,[1],127 ± 12.2 pg/mL
same,IC50,"[2]; kynuramine 40 μM, 10 min incubation",1200 nM
same,MAO-A inhibition (in words),[2]; tested up to 100 μM,inhibitory activity
same,MAO-B inhibition (in words),[3],inhibitory activity
same,IC50,"[3]; kynuramine 25 μM, 10 min incubation",32 nM
